Consider 101 molecules from PubChem BioAssay AID1189 (EPA DSSTox, 2008).

The source made the active and inactive calls.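 Rule for the calls: active = a tumor-causing dose value with its tumor site reported for any sex and species group of a rodent or other animal cancer study; inconclusive = only studies judged inadequate by the national testing program; inactive = tested in at least one study, none positive.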

The nature of this data set: DSSTox (CPDBAS) Carcinogenic Potency Database Summary SingleCellCall Results. As to conditions: animal chronic carcinogenicity bioassays, CPDB summary call. A digest of the protocol: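 Literature-derived summary: each substance receives an overall carcinogenic/non-carcinogenic category drawn from long-term bioassays in rats, mice, hamsters, dogs or primates, using the most positive sex-species experiment and minimal evidence criteria.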
In the case of `CC(=O)C(N=Nc1ccc(-c2ccc(N=NC(C(C)=O)C(=O)Nc3ccccc3)c(Cl)c2)cc1Cl)C(=O)Nc1ccccc1` (stereo unspecified), the result was inactive.

As for `CC(C)N(C(=O)SC/C(Cl)=C/Cl)C(C)C`, the outcome was “active; inactive”.

As for `NC(=O)NC1NC(=O)NC1=O` (stereo unspecified), the outcome was inactive.

As to `FC(Cl)C(F)(F)F` (stereo unspecified), the result was inactive.

On to `CCN(CC)C(=O)Nc1ccc(OCC(O)CNC(C)(C)C)c(C(C)=O)c1` (stereo unspecified), for which the outcome was “inactive; active”.

On to `CC(C)(C)NC[C@H](O)COc1cccc2c1CCCC2=O`, for which the result was inactive.

Turning to `O=C1OC(=O)c2ccccc21`, the outcome was inactive.

Regarding `CCCCC/C=N/N(C)C=O`, the outcome was active.

In the case of `C/C=C/c1ccc2c(c1)OCO2`, the outcome was inactive.

For `C/C=C1/C[C@@H](C)[C@](O)(CO)C(=O)OCC2=CCN3CC[C@@H](OC1=O)[C@@H]23`, the result was active.

With `CCOC1=C(O)C(=O)O[C@@H]1[C@@H](O)CO`, the result was inactive.

Consider `O=C(O)CCl`, for which the outcome was “inactive; active”.

Take `CCCCCN(N=O)C(=O)OCC`: the outcome was active.

Regarding `Nc1ccc2cc3ccc(N)cc3nc2c1`, the outcome was inactive.

For the molecule `O=C1C=C(N2CC2)C(=O)C(N2CC2)=C1N1CC1`, the result was active.

Take `N[C@@H](Cc1c[nH]c2ccccc12)C(=O)O`: the result was inactive.

With `CCN(C=O)CC`, the outcome was “inactive; active”.

Regarding `[Cd+2].[Cl-].[Cl-]`, the outcome was “active; inactive”.

With `C=CCO`, the outcome was “inactive; active”.

As for `NCCNc1cccc2ccccc12`, the outcome is “inactive; active”.

`Cc1cc(Cl)ccc1OCC(=O)O`: the result was inactive.

Consider `CC(=O)Oc1ccccc1C(=O)O`, for which the result was inactive.

`Cc1ccc2c(c1N)C(=O)c1ccccc1C2=O`: the result was active.

With `Nc1ccc(-c2ccc(N)c(O)c2)cc1O`, the outcome was active.

For the molecule `O=P(OCCCl)(OCCCl)OCCCl`, the result was active.

For `CCCc1cc(=O)[nH]c(=S)[nH]1`, the outcome was active.

As to `O=C(OOC(=O)c1ccccc1)c1ccccc1`, the result was inactive.

Regarding `Nc1cc(S(=O)(=O)[O-])cc2cc(S(=O)(=O)[O-])c(N=Nc3ccc(-c4ccc(N=Nc5c(S(=O)(=O)[O-])cc6cc(S(=O)(=O)[O-])cc(N)c6c5O)c(O)c4)cc3O)c(O)c12.[Cu].[Cu].[Na+].[Na+].[Na+].[Na+]`, the outcome is “active; inactive”.

Take `O=NN1CCCCCCC1`: the outcome was active.

In the case of `O=C/C=C/O`, the result was active.

As for `NC(=O)N(CCCO)N=O`, the outcome is “active; inactive”.

Take `O[C@@H]([C@H](O)[C@@H](O)CBr)[C@@H](O)CBr`: the result was active.

As to `Clc1nc(Cl)nc(Nc2ccccc2Cl)n1`, the result was inactive.

Consider `CC1(C)C(=O)NC(=O)NC1=O`, for which the outcome was “inactive; active”.

On to `CC1=C(CC(=O)O)c2cc(F)ccc2/C1=C\c1ccc(S(C)(=O)=O)cc1`, for which the result was inactive.

Consider `CO[C@H]1/C=C/O[C@@]2(C)Oc3c(C)c(O)c4c(O)c(c(/C=N/N5CCN(C)CC5)c(O)c4c3C2=O)NC(=O)/C(C)=C\C=C\[C@H](C)[C@H](O)[C@@H](C)[C@@H](O)[C@@H](C)[C@H](OC(C)=O)[C@@H]1C`, for which the outcome is “active; inactive”.

In the case of `CC1(C)C(=O)Nc2ccc(C3=NNC(=O)CC3)cc21`, the result was active.

For the molecule `OC[C@H]1O[C@@H]2O[C@H]3[C@H](O)[C@@H](O)[C@@H](O[C@H]4[C@H](O)[C@@H](O)[C@@H](O[C@H]5[C@H](O)[C@@H](O)[C@@H](O[C@H]6[C@H](O)[C@@H](O)[C@@H](O[C@H]7[C@H](O)[C@@H](O)[C@@H](O[C@H]8[C@H](O)[C@@H](O)[C@@H](O[C@H]1[C@H](O)[C@H]2O)O[C@@H]8CO)O[C@@H]7CO)O[C@@H]6CO)O[C@@H]5CO)O[C@@H]4CO)O[C@@H]3CO`, the result was inactive.

For `CN1C(C(=O)Nc2ccccn2)=C(O)c2ccccc2S1(=O)=O`, the outcome was inactive.

In the case of `N[C@@H](Cc1ccc(N(CCCl)CCCl)cc1)C(=O)O`, the result was active.

With `O=C(Nc1nc(-c2ccc([N+](=O)[O-])o2)cs1)C(F)(F)F`, the result was active.

For the molecule `C[C@]12CC[C@@H]3c4ccc(OC(=O)Cc5ccc(N(CCCl)CCCl)cc5)cc4CC[C@H]3[C@@H]1CC[C@@H]2OC(=O)Cc1ccc(N(CCCl)CCCl)cc1`, the outcome was active.

For the molecule `CCN(CC)C(=S)SSC(=S)N(CC)CC`, the outcome is “inactive; active”.

In the case of `C/C(=C(\CCOC(=O)c1ccccc1)SC(=O)c1ccccc1)N(C=O)Cc1cnc(C)nc1N`, the outcome was “inactive; active”.

Regarding `Cc1c(C)c2c(c(C)c1O)CCC(C)(CCCC(C)CCCC(C)CCCC(C)C)O2` (stereo unspecified), the outcome was inactive.

`O=[N+]([O-])c1ccc2c3c(cccc13)CC2`: the outcome was active.

As for `Oc1cccc(O)c1`, the result was inactive.

Consider `CNN`, for which the outcome was active.

Turning to `O=S(=O)([O-])[O-].O=S(=O)([O-])[O-].[Zr+4]`, the outcome was inactive.

With `C[C@H]1C(=O)O[C@@H]2CCN3CC=C(COC(=O)[C@](C)(O)[C@]1(C)O)[C@H]23`, the outcome was active.

With `c1ccncc1`, the outcome was active.

Regarding `O=C(O)CCC(=O)O`, the outcome is “inactive; active”.

As to `CC1CC(=O)O1` (stereo unspecified), the result was active.

With `CC(=O)Nc1ccc(S(=O)(=O)O)c2cc(S(=O)(=O)O)c(N=Nc3ccc(N=Nc4ccc(S(=O)(=O)O)cc4)c4ccc(S(=O)(=O)O)cc34)c(O)c12`, the outcome was “inactive; active”.

As for `O=CCCl`, the outcome was active.

For `CC(CN1c2ccccc2Sc2ccccc21)N(C)C` (stereo unspecified), the outcome was inactive.

For the molecule `O=C1CCO1`, the outcome is “active; inactive”.

As to `COC(=O)C1=CCCN(N=O)C1`, the result was inactive.

As for `O=S1(=O)CC=CC1`, the outcome was inactive.

As to `Nc1ccc(Oc2ccc(N)cc2)cc1`, the outcome was active.

As to `COC(=O)C1=C(C)NC(C)=C(C(=O)OCCN2CCN(C(c3ccccc3)c3ccccc3)CC2)C1c1cccc([N+](=O)[O-])c1` (stereo unspecified), the outcome was inactive.

For `O=C(O)c1nn(Cc2ccc(Cl)cc2Cl)c2ccccc12`, the outcome was inactive.

As to `COc1cc2c(c3oc4cccc(O)c4c(=O)c13)C1C=COC1O2` (stereo unspecified), the outcome is “active; inactive”.

Take `CC1=C(C)C(=O)C(C(CCCCCC(=O)O)c2ccccc2)=C(C)C1=O` (stereo unspecified): the outcome was inactive.

As for `O=P(O)(OCC(Br)CBr)OCC(Br)CBr` (stereo unspecified), the outcome was “active; inactive”.

For the molecule `O=[As](O)(O)O`, the outcome was inactive.

As for `O=C1c2ccccc2C(=O)c2c(O)c(O)cc(O)c21`, the outcome was active.

For the molecule `CC(=O)[O][Hg][c]1ccccc1`, the result was inactive.

In the case of `COc1ccc(OC)c(/C=C/c2ccc(N)cc2)c1`, the outcome was active.

For the molecule `[O]=[Cr][O][Cr]=[O]`, the result was inactive.

In the case of `ClC(Cl)=C(Cl)C(Cl)=C(Cl)Cl`, the result was active.

In the case of `NC(=O)OCC(COC(N)=O)c1ccccc1`, the outcome was “active; inactive”.

For `CC1(C)S[C@@H]2[C@H](NC(=O)[C@H](N)c3ccccc3)C(=O)N2[C@H]1C(=O)O`, the outcome was inactive.

Take `O=S(=O)(O)c1c(N=Nc2c(O)ccc3ccccc23)ccc2ccccc12`: the outcome was “inactive; active”.

As for `C=CCc1ccc(O)c(OC)c1`, the outcome was inactive.

With `c1ccc2n[nH]nc2c1`, the result was inactive.

For `CCNC(=O)N(CCO)N=O`, the result was active.

As for `O=C(O)CN(CCN(CC(=O)O)CC(=O)O)CC(=O)O`, the outcome was inactive.

With `CN(CC(O)CO)N=O` (stereo unspecified), the result was active.

`CCN(N=O)C(=O)NCC(C)=O`: the result was active.

In the case of `O=C1CCCO1`, the outcome was inactive.

Regarding `C/C1=C\C=C(\C(C)C)[C@@H](O)C/C(C)=C/CC/C(C)=C/CC1`, the result was inactive.

For `C=CC(=C)C`, the result was active.

`CCN(Cc1cccc(S(=O)(=O)O)c1)c1ccc(C(=C2C=CC(=[N+](CC)Cc3cccc(S(=O)(=O)[O-])c3)C=C2)c2ccccc2)cc1`: the outcome was active.

As to `OCC(CO)(CBr)CBr`, the result was active.

`COC(N)=O`: the result was active.

Turning to `c1ccc2sc(SN3CCOCC3)nc2c1`, the outcome was inactive.

With `CN(N=O)c1ccccn1`, the outcome was active.

Turning to `Cn1c(=O)c2[nH]cnc2n(C)c1=O`, the outcome is “inactive; active”.

Turning to `Nc1nnc(-c2ccc([N+](=O)[O-])o2)s1`, the result was active.

Take `COc1cccc2c1C(=O)c1c(O)c3c(c(O)c1C2=O)C[C@@](O)(C(=O)CO)C[C@@H]3O[C@H]1C[C@H](N)[C@H](O)[C@H](C)O1`: the outcome is “inactive; active”.

Regarding `Clc1cnc(Oc2ccc(Oc3ncc(Cl)cc3Cl)cc2)c(Cl)c1`, the outcome was inactive.

As to `O=P(OC(CCl)CCl)(OC(CCl)CCl)OC(CCl)CCl`, the outcome was active.

For `CC(C)OC(=O)Nc1ccccc1`, the outcome was “inactive; active”.

For `Nc1ccc(Cl)cc1N`, the result was active.

Take `CCCCCCCCCCC(C)c1ccc(S(=O)(=O)O)cc1` (stereo unspecified): the outcome was inactive.

As to `NNCCO`, the outcome is “active; inactive”.

As for `CCCl`, the outcome is “active; inactive”.

Take `O=[N+]([O-])c1ccc(-c2nc(N3CCOCC3)c3ccccc3n2)s1`: the result was active.

On to `Clc1ccc2c(c1)C(c1ccccc1)=NCc1nncn1-2`, for which the outcome was “inactive; active”.

Consider `CC(Cl)(Cl)Cl`, for which the outcome was inactive.
